Results reported in the supplement of paper PMC11451515.

How the values were obtained:
Conditions in all cases: 48 h
NOMO1 [1] = experiment: AUC of viability dose-response curve (% viability x log10 dose units); higher = less sensitive
Procedure, shortened: (§1)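 Seeding of medium-adapted leukemia cells was at 500 or 1000 cells/well in 1536-well plates, followed by 48 h at 37°C with library compounds in DMSO at 11 threefold doses from 47 μM to 0.79 nM. CellTiter-Glo One luminescence was normalised per plate to DMSO and cell-free wells and fitted as a four-parameter log-logistic function of log10 dose. Area under the curve was integrated by trapezoidal rule, with curves exceeding full viability scaled and curves failing quality control removed.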

SEM cells [2] = experiment: as above
Procedure, shortened: as §1

P12-Ichikawa [3] = experiment: as above
Procedure, shortened: as §1

NOMO1 [4] = experiment: cell viability relative to DMSO control; higher = less cytotoxic
Procedure, shortened: (§2)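 NOMO1 or SEM (500 cells/well) or P12-Ichikawa (1000 cells/well) leukemia cells were adapted for at least four passages in each medium. They were seeded in 1536-well plates (5 μl) and pin-dosed with library compounds in DMSO over an 11-point threefold series, 47 μM to 0.79 nM. CellTiter-Glo One luminescence was read after 48 h at 37°C. Viability is the per-plate percentage relative to DMSO wells, with cell-free wells as background.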

SEM cells [5] = experiment: as above
Procedure, shortened: as §2

P12-Ichikawa [6] = experiment: as above
Procedure, shortened: as §2

COc1cc2c(cc1OC)CN(CCc1ccc(NC(=O)c3cc(OC)c(OC)cc3NC(=O)c3cnc4ccccc4c3)cc1)CC2
AUC of viability dose-response curve
Conditions	NOMO1 [1]	P12-Ichikawa [3]	SEM cells [2]
HPLM + 10% dialyzed FBS	459	412	445
RPMI 5 mM glucose + 10% FBS	458	401	418
RPMI 5 mM glucose + 10% dialyzed FBS	464	402	432

cell viability [%]
Conditions	NOMO1 [4]	P12-Ichikawa [6]	SEM cells [5]
HPLM + 10% dialyzed FBS, 0.000781 µM	118	114	116
HPLM + 10% dialyzed FBS, 0.00234 µM	121	122	115
HPLM + 10% dialyzed FBS, 0.00702 µM	123	115	116
HPLM + 10% dialyzed FBS, 0.0211 µM	122	114	123
HPLM + 10% dialyzed FBS, 0.0632 µM	128	110	111
HPLM + 10% dialyzed FBS, 0.19 µM	122	113	110
HPLM + 10% dialyzed FBS, 0.569 µM	109	111	123
HPLM + 10% dialyzed FBS, 1.71 µM	119	102	120
HPLM + 10% dialyzed FBS, 5.12 µM	114	65.6	101
HPLM + 10% dialyzed FBS, 15.4 µM	95.3	62.8	69
HPLM + 10% dialyzed FBS, 46.1 µM	94.1	44.4	79.6
RPMI 5 mM glucose + 10% FBS, 0.000781 µM	107	124	–
RPMI 5 mM glucose + 10% FBS, 0.00234 µM	106	112	–
RPMI 5 mM glucose + 10% FBS, 0.00702 µM	123	112	–
RPMI 5 mM glucose + 10% FBS, 0.0211 µM	118	120	–
RPMI 5 mM glucose + 10% FBS, 0.0632 µM	123	112	–
RPMI 5 mM glucose + 10% FBS, 0.19 µM	118	118	–
RPMI 5 mM glucose + 10% FBS, 0.569 µM	127	105	–
RPMI 5 mM glucose + 10% FBS, 1.71 µM	106	92.7	–
RPMI 5 mM glucose + 10% FBS, 5.12 µM	107	64	–
RPMI 5 mM glucose + 10% FBS, 15.4 µM	107	54.1	–
RPMI 5 mM glucose + 10% FBS, 46.1 µM	96.5	47.5	–
RPMI 5 mM glucose + 10% dialyzed FBS, 0.000781 µM	118	114	115
RPMI 5 mM glucose + 10% dialyzed FBS, 0.00234 µM	122	106	123
RPMI 5 mM glucose + 10% dialyzed FBS, 0.00702 µM	113	116	114
RPMI 5 mM glucose + 10% dialyzed FBS, 0.0211 µM	126	114	108
RPMI 5 mM glucose + 10% dialyzed FBS, 0.0632 µM	115	113	122
RPMI 5 mM glucose + 10% dialyzed FBS, 0.19 µM	126	114	123
RPMI 5 mM glucose + 10% dialyzed FBS, 0.569 µM	116	99.4	121
RPMI 5 mM glucose + 10% dialyzed FBS, 1.71 µM	124	92	132
RPMI 5 mM glucose + 10% dialyzed FBS, 5.12 µM	120	56.4	103
RPMI 5 mM glucose + 10% dialyzed FBS, 15.4 µM	102	56.6	59.9
RPMI 5 mM glucose + 10% dialyzed FBS, 46.1 µM	91.5	46.5	47.9

Cc1ccccc1C(=O)Nc1ccc(C(=O)N2CCCC(O)c3cc(Cl)ccc32)c(C)c1 (stereo not drawn)
AUC of viability dose-response curve
Conditions	NOMO1 [1]	P12-Ichikawa [3]	SEM cells [2]
HPLM + 10% dialyzed FBS	452	461	460
RPMI 5 mM glucose + 10% FBS	471	462	455
RPMI 5 mM glucose + 10% dialyzed FBS	471	469	446

cell viability [%]
Conditions	NOMO1 [4]	P12-Ichikawa [6]	SEM cells [5]
HPLM + 10% dialyzed FBS, 0.000781 µM	129	116	109
HPLM + 10% dialyzed FBS, 0.00234 µM	125	117	97.2
HPLM + 10% dialyzed FBS, 0.00702 µM	123	120	97.9
HPLM + 10% dialyzed FBS, 0.0211 µM	141	122	112
HPLM + 10% dialyzed FBS, 0.0632 µM	139	127	113
HPLM + 10% dialyzed FBS, 0.19 µM	121	135	117
HPLM + 10% dialyzed FBS, 0.569 µM	143	131	131
HPLM + 10% dialyzed FBS, 1.71 µM	163	136	42.2
HPLM + 10% dialyzed FBS, 5.12 µM	147	129	108
HPLM + 10% dialyzed FBS, 15.4 µM	125	127	127
HPLM + 10% dialyzed FBS, 46.1 µM	137	124	121
RPMI 5 mM glucose + 10% FBS, 0.000781 µM	–	–	122
RPMI 5 mM glucose + 10% FBS, 0.00234 µM	–	–	109
RPMI 5 mM glucose + 10% FBS, 0.00702 µM	–	–	123
RPMI 5 mM glucose + 10% FBS, 0.0211 µM	–	–	136
RPMI 5 mM glucose + 10% FBS, 0.0632 µM	–	–	141
RPMI 5 mM glucose + 10% FBS, 0.19 µM	–	–	127
RPMI 5 mM glucose + 10% FBS, 0.569 µM	–	–	137
RPMI 5 mM glucose + 10% FBS, 1.71 µM	–	–	32.9
RPMI 5 mM glucose + 10% FBS, 5.12 µM	–	–	140
RPMI 5 mM glucose + 10% FBS, 15.4 µM	–	–	151
RPMI 5 mM glucose + 10% FBS, 46.1 µM	–	–	146
RPMI 5 mM glucose + 10% dialyzed FBS, 0.000781 µM	–	–	103
RPMI 5 mM glucose + 10% dialyzed FBS, 0.00234 µM	–	–	116
RPMI 5 mM glucose + 10% dialyzed FBS, 0.00702 µM	–	–	112
RPMI 5 mM glucose + 10% dialyzed FBS, 0.0211 µM	–	–	140
RPMI 5 mM glucose + 10% dialyzed FBS, 0.0632 µM	–	–	132
RPMI 5 mM glucose + 10% dialyzed FBS, 0.19 µM	–	–	136
RPMI 5 mM glucose + 10% dialyzed FBS, 0.569 µM	–	–	149
RPMI 5 mM glucose + 10% dialyzed FBS, 1.71 µM	–	–	56.3
RPMI 5 mM glucose + 10% dialyzed FBS, 5.12 µM	–	–	146
RPMI 5 mM glucose + 10% dialyzed FBS, 15.4 µM	–	–	140
RPMI 5 mM glucose + 10% dialyzed FBS, 46.1 µM	–	–	133

CN1CCCN(CC1)C2=CC=C3C(=O)\C(=C/4SC5=C(C=CC=C5)N4C3=N2)C(=O)NCC6=CN=C(C)C=N6
AUC of viability dose-response curve
Conditions	NOMO1 [1]	P12-Ichikawa [3]	SEM cells [2]
HPLM + 10% dialyzed FBS	442	447	417
RPMI 5 mM glucose + 10% FBS	468	410	335
RPMI 5 mM glucose + 10% dialyzed FBS	450	420	374

cell viability [%]
Conditions	NOMO1 [4]	P12-Ichikawa [6]	SEM cells [5]
HPLM + 10% dialyzed FBS, 0.000781 µM	127	114	110
HPLM + 10% dialyzed FBS, 0.00234 µM	122	108	102
HPLM + 10% dialyzed FBS, 0.00702 µM	108	119	114
HPLM + 10% dialyzed FBS, 0.0211 µM	130	108	91.7
HPLM + 10% dialyzed FBS, 0.0632 µM	110	110	97.9
HPLM + 10% dialyzed FBS, 0.19 µM	96.6	113	103
HPLM + 10% dialyzed FBS, 0.569 µM	125	108	82.2
HPLM + 10% dialyzed FBS, 1.71 µM	105	103	88.1
HPLM + 10% dialyzed FBS, 5.12 µM	116	92.3	81.2
HPLM + 10% dialyzed FBS, 15.4 µM	115	92.4	73.6
HPLM + 10% dialyzed FBS, 46.1 µM	94.2	84.6	41.6
RPMI 5 mM glucose + 10% FBS, 0.000781 µM	106	113	–
RPMI 5 mM glucose + 10% FBS, 0.00234 µM	103	124	–
RPMI 5 mM glucose + 10% FBS, 0.00702 µM	99.8	122	–
RPMI 5 mM glucose + 10% FBS, 0.0211 µM	94.1	109	–
RPMI 5 mM glucose + 10% FBS, 0.0632 µM	94.4	117	–
RPMI 5 mM glucose + 10% FBS, 0.19 µM	107	108	–
RPMI 5 mM glucose + 10% FBS, 0.569 µM	101	95.9	–
RPMI 5 mM glucose + 10% FBS, 1.71 µM	105	101	–
RPMI 5 mM glucose + 10% FBS, 5.12 µM	97.3	83.3	–
RPMI 5 mM glucose + 10% FBS, 15.4 µM	92.4	81.8	–
RPMI 5 mM glucose + 10% FBS, 46.1 µM	86.7	54.1	–
RPMI 5 mM glucose + 10% dialyzed FBS, 0.000781 µM	103	103	89.6
RPMI 5 mM glucose + 10% dialyzed FBS, 0.00234 µM	105	114	93.9
RPMI 5 mM glucose + 10% dialyzed FBS, 0.00702 µM	111	117	97.5
RPMI 5 mM glucose + 10% dialyzed FBS, 0.0211 µM	91.2	108	92.7
RPMI 5 mM glucose + 10% dialyzed FBS, 0.0632 µM	119	107	98.1
RPMI 5 mM glucose + 10% dialyzed FBS, 0.19 µM	115	104	79.5
RPMI 5 mM glucose + 10% dialyzed FBS, 0.569 µM	102	94.5	68.2
RPMI 5 mM glucose + 10% dialyzed FBS, 1.71 µM	98.7	92.1	71.3
RPMI 5 mM glucose + 10% dialyzed FBS, 5.12 µM	82.9	85.8	70.5
RPMI 5 mM glucose + 10% dialyzed FBS, 15.4 µM	89	82.2	56.3
RPMI 5 mM glucose + 10% dialyzed FBS, 46.1 µM	84.8	59.6	33.1
